Source: patent publication US8802700B2 (Vertex Pharmaceuticals Incorporated, priority 2010, dated 2014)

target: T1, ΔF508-CFTR (Homo sapiens, UniProt P13569, DEL508-508); test: Membrane potential optical assay (FRET voltage-sensor dyes, VIPR), identification of potentiator compounds; assay type: cell-based; conditions: Table 3; assay not given
T1 construct: expressed in transfected cells
Procedure, shortened: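 NIH3T3 mouse fibroblasts stably expressing ΔF508-CFTR, cultured 24 h at 27 °C, were loaded with FRET voltage dyes CC2-DMPE and DiSBAC2(3). Double-addition format: first addition of Cl⁻-free (gluconate) medium with or without compound; membrane-potential change read as fluorescence on VIPR II.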

T1 sequence (P13569 with tags, fused parts or gaps DEL508-508): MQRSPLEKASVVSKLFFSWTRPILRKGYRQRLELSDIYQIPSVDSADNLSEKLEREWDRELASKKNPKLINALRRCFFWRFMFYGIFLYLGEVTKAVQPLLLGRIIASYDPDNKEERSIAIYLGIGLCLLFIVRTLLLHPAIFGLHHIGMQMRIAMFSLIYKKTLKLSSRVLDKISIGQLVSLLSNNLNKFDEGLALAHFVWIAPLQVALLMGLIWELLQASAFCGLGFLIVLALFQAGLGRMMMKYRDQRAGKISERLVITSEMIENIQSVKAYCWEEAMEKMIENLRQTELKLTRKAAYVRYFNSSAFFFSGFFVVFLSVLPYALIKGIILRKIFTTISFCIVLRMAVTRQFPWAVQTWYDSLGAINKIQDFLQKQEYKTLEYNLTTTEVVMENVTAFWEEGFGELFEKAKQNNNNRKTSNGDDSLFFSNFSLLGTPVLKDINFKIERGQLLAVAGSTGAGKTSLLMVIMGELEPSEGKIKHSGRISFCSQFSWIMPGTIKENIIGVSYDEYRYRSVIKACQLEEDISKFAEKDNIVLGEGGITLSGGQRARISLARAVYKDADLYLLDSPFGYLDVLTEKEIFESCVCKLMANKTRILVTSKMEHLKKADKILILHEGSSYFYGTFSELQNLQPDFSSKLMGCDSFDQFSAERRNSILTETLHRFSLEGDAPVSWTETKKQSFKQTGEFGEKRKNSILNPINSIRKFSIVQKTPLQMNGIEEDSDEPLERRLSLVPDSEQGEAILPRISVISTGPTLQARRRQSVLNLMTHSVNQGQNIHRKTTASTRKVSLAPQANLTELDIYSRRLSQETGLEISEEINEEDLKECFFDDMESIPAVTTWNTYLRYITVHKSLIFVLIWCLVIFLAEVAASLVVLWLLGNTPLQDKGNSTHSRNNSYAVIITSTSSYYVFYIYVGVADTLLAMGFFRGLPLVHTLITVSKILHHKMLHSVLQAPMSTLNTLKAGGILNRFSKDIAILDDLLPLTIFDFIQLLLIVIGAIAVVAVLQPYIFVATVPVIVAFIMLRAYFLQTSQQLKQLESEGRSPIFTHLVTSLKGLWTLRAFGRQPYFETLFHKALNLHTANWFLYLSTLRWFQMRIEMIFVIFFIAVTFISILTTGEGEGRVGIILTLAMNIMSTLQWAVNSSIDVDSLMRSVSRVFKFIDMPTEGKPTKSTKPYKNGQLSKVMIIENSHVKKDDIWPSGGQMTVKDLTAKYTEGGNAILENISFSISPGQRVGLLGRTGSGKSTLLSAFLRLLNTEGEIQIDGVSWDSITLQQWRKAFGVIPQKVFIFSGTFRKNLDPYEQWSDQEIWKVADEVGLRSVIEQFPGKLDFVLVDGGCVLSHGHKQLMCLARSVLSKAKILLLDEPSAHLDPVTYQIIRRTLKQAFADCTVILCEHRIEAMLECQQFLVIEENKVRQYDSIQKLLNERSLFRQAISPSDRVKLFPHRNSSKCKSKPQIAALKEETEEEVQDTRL

Which EC50 does the source give for `O=C(Nc1ccc(N2CCCC2)cc1)c1c[nH]c2ccccc2c1=O` [Compound 674, 4-oxo-N-(4-pyrrolidin-1-ylphenyl)-1H-quinoline-3-carboxamide] here?
Its EC50 is under 10 µM.

same assay, conditions: Table 3; assay not given; read-out: % Activity (% Efficacy, relative efficacy)

How did the Emax turn out when `CC(C)(C)c1cc(C(C)(C)C)c(NC(=O)c2c[nH]c3cc(O)ccc3c2=O)cc1O` [Compound 652, 7-hydroxy-N-(5-hydroxy-2,4-ditert-butyl-phenyl)-4-oxo-1H-quinoline-3-carboxamide] was run?
The Emax was 25 to 100%.

How did the Emax turn out when `O=C(Nc1cc(OCc2ccccc2)c(C2CCCCC2)cc1C(F)(F)F)c1c[nH]c2ccccc2c1=O` [Compound 654, N-[5-benzyloxy-4-cyclohexyl-2-(trifluoromethyl)phenyl]-4-oxo-1H-quinoline-3-carboxamide] was run?
Its Emax is 25 to 100%.

`O=C(Nc1ccc(N2CC[C@H](O)C2)cc1C(F)(F)F)c1c[nH]c2ccccc2c1=O` [Compound 655, (S)-N-(4-(3-hydroxypyrrolidin-1-yl)-2-(trifluoromethyl)phenyl)-4-oxo-1,4-dihydroquinoline-3-carboxamide] was tested. Which Emax did it give?
Its Emax is 25 to 100%.

`CC(C)(C)c1cc2cc[nH]c2cc1NC(=O)c1c[nH]c2cccc(F)c2c1=O` [Compound 656, 5-fluoro-4-oxo-N-(5-tert-butyl-1H-indol-6-yl)-1H-quinoline-3-carboxamide] was tested. Which Emax did it give?
Its Emax is 25 to 100%.

With `CC(C)c1ccc(NC(=O)c2c[nH]c3ccc(Cl)cc3c2=O)c(C(F)(F)F)c1` [Compound 657, 6-chloro-N-[4-isopropyl-2-(trifluoromethyl)phenyl]-4-oxo-1H-quinoline-3-carboxamide] as the compound, how does the Emax read?
The Emax was 25 to 100%.

`O=C(Nc1ccc(N2CCCC2)cc1C(F)(F)F)c1c[nH]c2ccccc2c1=O` [Compound 658, 4-oxo-N-[4-pyrrolidin-1-yl-2-(trifluoromethyl)phenyl]-1H-quinoline-3-carboxamide] was tested. Which Emax did it give?
Its Emax is 25 to 100%.

With `CCc1cc(C(C)(C)C)c(O)cc1NC(=O)c1c[nH]c2ccccc2c1=O` [Compound 659, N-(2-ethyl-5-hydroxy-4-tert-butyl-phenyl)-4-oxo-1H-quinoline-3-carboxamide] as the compound, how does the Emax read?
Its Emax is 25 to 100%.

How did the Emax turn out when `CCOC(=O)[C@H]1CCCN(c2ccc(NC(=O)c3c[nH]c4ccccc4c3=O)c(C(F)(F)F)c2)C1` [Compound 660, (S)-ethyl 1-(4-(4-oxo-1,4-dihydroquinoline-3-carboxamido)-3-(trifluoromethyl)phenyl)piperidine-3-carboxylate] was run?
The Emax was 25 to 100%.

Which Emax does the source give for `Cc1cccc2[nH]cc(C(=O)Nc3cc4[nH]ccc4cc3C(F)(F)F)c(=O)c12` [Compound 661, 5-methyl-4-oxo-N-[5-(trifluoromethyl)-1H-indol-6-yl]-1H-quinoline-3-carboxamide] here?
Its Emax is 25 to 100%.

With `CC(C)(C)c1ccc(O)cc1NC(=O)c1c[nH]c2ccccc2c1=O` [Compound 662, N-(5-hydroxy-2-tert-butyl-phenyl)-4-oxo-1H-quinoline-3-carboxamide] as the compound, how does the Emax read?
The Emax was over 100%.

How did the Emax turn out when `CC(C)(C)c1cc(C(C)(C)C)c(NC(=O)c2c[nH]c3c(Cl)cccc3c2=O)cc1O` [Compound 663, 8-chloro-N-(5-hydroxy-2,4-ditert-butyl-phenyl)-4-oxo-1H-quinoline-3-carboxamide] was run?
Its Emax is 25 to 100%.

With `CC(C)(C)c1cccc(NC(=O)c2c[nH]c3ccc(F)cc3c2=O)c1` [Compound 664, 6-fluoro-4-oxo-N-(3-tert-butylphenyl)-1H-quinoline-3-carboxamide] as the compound, how does the Emax read?
The Emax was 25 to 100%.

How did the Emax turn out when `CC(C)(C)c1ccc(O)cc1NC(=O)c1c[nH]c2ccc(F)cc2c1=O` [Compound 665, 6-fluoro-N-(5-hydroxy-2-tert-butyl-phenyl)-4-oxo-1H-quinoline-3-carboxamide] was run?
The Emax was 25 to 100%.

`COc1cc(NC(=O)c2c[nH]c3ccc(F)cc3c2=O)cc(C(F)(F)F)c1` [Compound 666, 6-fluoro-N-[3-methoxy-5-(trifluoromethyl)phenyl]-4-oxo-1H-quinoline-3-carboxamide] was tested. Which Emax did it give?
The Emax was 25 to 100%.

Which Emax does the source give for `Cc1cccc2[nH]cc(C(=O)Nc3ccc(N4CC(F)(F)C[C@H]4C)cc3C(F)(F)F)c(=O)c12` [Compound 667, (R)-N-(4-(4,4-difluoro-2-methylpyrrolidin-1-yl)-2-(trifluoromethyl)phenyl)-5-methyl-4-oxo-1,4-dihydroquinoline-3-carboxamide] here?
Its Emax is 25 to 100%.

For `O=C(Nc1ccc(N2CCC(CO)CC2)cc1C(F)(F)F)c1c[nH]c2ccccc2c1=O` [Compound 668, N-[4-[4-(hydroxymethyl)-1-piperidyl]-2-(trifluoromethyl)phenyl]-4-oxo-1H-quinoline-3-carboxamide], which Emax is on record?
The Emax was 25 to 100%.

How did the Emax turn out when `C[C@H]1CCCN1c1ccc(NC(=O)c2c[nH]c3cccc(C(F)(F)F)c3c2=O)c(C(F)(F)F)c1` [Compound 669, (S)-N-(4-(2-methylpyrrolidin-1-yl)-2-(trifluoromethyl)phenyl)-4-oxo-5-(trifluoromethyl)-1,4-dihydroquinoline-3-carboxamide] was run?
The Emax was 25 to 100%.

`O=C(Nc1ccc(N2CCC[C@@H]2CO)cc1C(F)(F)F)c1c[nH]c2ccccc2c1=O` [Compound 670, (R)-N-(4-(2-(hydroxymethyl)pyrrolidin-1-yl)-2-(trifluoromethyl)phenyl)-4-oxo-1,4-dihydroquinoline-3-carboxamide] was tested. Which Emax did it give?
Its Emax is 25 to 100%.

`Nc1nc2ccc(NC(=O)c3c[nH]c4ccccc4c3=O)cc2s1` [Compound 671, N-(2-aminobenzothiazol-6-yl)-4-oxo-1H-quinoline-3-carboxamide] was tested. Which Emax did it give?
The Emax was 25 to 100%.

How did the Emax turn out when `CC(C)(C)c1cc(C(C)(C)C)c(NC(=O)c2c[nH]c3cc(F)c(F)cc3c2=O)cc1O` [Compound 672, 6,7-difluoro-N-(5-hydroxy-2,4-ditert-butyl-phenyl)-4-oxo-1H-quinoline-3-carboxamide] was run?
The Emax was 25 to 100%.

`O=C(Nc1ccc(N2CCN(CCO)CC2)cc1C(F)(F)F)c1c[nH]c2ccccc2c1=O` [Compound 673, N-[4-[4-(2-hydroxyethyl)piperazin-1-yl]-2-(trifluoromethyl)phenyl]-4-oxo-1H-quinoline-3-carboxamide] was tested. Which Emax did it give?
The Emax was 25 to 100%.

With `O=C(Nc1ccc(N2CCCC2)cc1)c1c[nH]c2ccccc2c1=O` [Compound 674, 4-oxo-N-(4-pyrrolidin-1-ylphenyl)-1H-quinoline-3-carboxamide] as the compound, how does the Emax read?
Its Emax is 25 to 100%.

With `COc1cc(N2CCCC2)ccc1NC(=O)c1c[nH]c2ccccc2c1=O` [Compound 675, N-(2-methoxy-4-pyrrolidin-1-yl-phenyl)-4-oxo-1H-quinoline-3-carboxamide] as the compound, how does the Emax read?
Its Emax is 25 to 100%.

For `Cc1ccc(C(F)(F)F)cc1NC(=O)c1c[nH]c2cccc(O)c2c1=O` [Compound 676, 5-hydroxy-N-[2-methyl-5-(trifluoromethyl)phenyl]-4-oxo-1H-quinoline-3-carboxamide], which Emax is on record?
The Emax was 25 to 100%.

Which Emax does the source give for `CC(C)(C)c1cc(F)c(NC(=O)c2c[nH]c3cc(C#N)ccc3c2=O)cc1O` [Compound 677, 7-cyano-N-(2-fluoro-5-hydroxy-4-tert-butyl-phenyl)-4-oxo-1H-quinoline-3-carboxamide] here?
The Emax was 25 to 100%.

How did the Emax turn out when `Cc1ccc(C(F)(F)F)cc1NC(=O)c1c[nH]c2ccc(F)cc2c1=O` [Compound 678, 6-fluoro-N-[2-methyl-5-(trifluoromethyl)phenyl]-4-oxo-1H-quinoline-3-carboxamide] was run?
Its Emax is 25 to 100%.

How did the Emax turn out when `CC(C)(C)c1cc2cc[nH]c2cc1NC(=O)c1c[nH]c2ccc(O)cc2c1=O` [Compound 679, 6-hydroxy-4-oxo-N-(5-tert-butyl-1H-indol-6-yl)-1H-quinoline-3-carboxamide] was run?
The Emax was 25 to 100%.

With `CCOc1ccc2[nH]cc(C(=O)Nc3cc4[nH]ccc4cc3C(C)(C)C)c(=O)c2c1` [Compound 681, 6-ethoxy-4-oxo-N-(5-tert-butyl-1H-indol-6-yl)-1H-quinoline-3-carboxamide] as the compound, how does the Emax read?
Its Emax is 25 to 100%.

Which Emax does the source give for `CCc1cccc2c(=O)c(C(=O)Nc3ccc(C(C)C)cc3C(F)(F)F)c[nH]c12` [Compound 682, 8-ethyl-N-[4-isopropyl-2-(trifluoromethyl)phenyl]-4-oxo-1H-quinoline-3-carboxamide] here?
The Emax was under 25%.

How did the Emax turn out when `Cc1cc(C(C)(C)C)c(O)cc1NC(=O)c1c[nH]c2ccc(F)cc2c1=O` [Compound 683, 6-fluoro-N-(5-hydroxy-2-methyl-4-tert-butyl-phenyl)-4-oxo-1H-quinoline-3-carboxamide] was run?
The Emax was 25 to 100%.

For `C[C@@H]1CCCN1c1ccc(NC(=O)c2c[nH]c3ccc(F)cc3c2=O)c(C(F)(F)F)c1` [Compound 684, (R)-6-fluoro-N-(4-(2-methylpyrrolidin-1-yl)-2-(trifluoromethyl)phenyl)-4-oxo-1,4-dihydroquinoline-3-carboxamide], which Emax is on record?
Its Emax is 25 to 100%.

`COc1ccc2[nH]cc(C(=O)Nc3ccc(N4[C@H](C)CC[C@H]4C)cc3C(F)(F)F)c(=O)c2c1` [Compound 685, N-(4-((2R,5R)-2,5-dimethylpyrrolidin-1-yl)-2-(trifluoromethyl)phenyl)-6-methoxy-4-oxo-1,4-dihydroquinoline-3-carboxamide] was tested. Which Emax did it give?
The Emax was 25 to 100%.

How did the Emax turn out when `O=C(Nc1ccc(N2CCCCC2)cc1C(F)(F)F)c1c[nH]c2ccccc2c1=O` [Compound 686, 4-oxo-N-[4-(1-piperidyl)-2-(trifluoromethyl)phenyl]-1H-quinoline-3-carboxamide] was run?
The Emax was 25 to 100%.

For `CC(C)(C)c1cc(C(C)(C)C)c(NC(=O)c2c[nH]c3c(F)cccc3c2=O)cc1O` [Compound 687, 8-fluoro-N-(5-hydroxy-2,4-ditert-butyl-phenyl)-4-oxo-1H-quinoline-3-carboxamide], which Emax is on record?
The Emax was 25 to 100%.

For `Cc1ccc2[nH]cc(C(=O)Nc3cc(O)c(C(C)(C)C)cc3C(C)(C)C)c(=O)c2c1` [Compound 688, N-(5-hydroxy-2,4-ditert-butyl-phenyl)-6-methyl-4-oxo-1H-quinoline-3-carboxamide], which Emax is on record?
Its Emax is 25 to 100%.

`O=C(Nc1ccc(N2CCC2)cc1C(F)(F)F)c1c[nH]c2ccccc2c1=O` [Compound 689, N-[4-azetidin-1-yl-2-(trifluoromethyl)phenyl]-4-oxo-1H-quinoline-3-carboxamide] was tested. Which Emax did it give?
Its Emax is 25 to 100%.

With `COC(=O)c1c(NC(=O)c2c[nH]c3ccccc3c2=O)csc1C(C)(C)C` [Compound 690, methyl 4-[(4-oxo-1H-quinolin-3-yl)carbonylamino]-2-tert-butyl-thiophene-3-carboxylate] as the compound, how does the Emax read?
The Emax was 25 to 100%.

Which Emax does the source give for `COc1cc(NC(=O)c2c[nH]c3ccccc3c2=O)cc(C(F)(F)F)c1` [Compound 691, N-[3-methoxy-5-(trifluoromethyl)phenyl]-4-oxo-1H-quinoline-3-carboxamide] here?
The Emax was 25 to 100%.
